Results reported in patent US11849728B2, “Method for controlling soybean rust fungus having resistance against Qo site inhibitor” (SUMITOMO CHEMICAL COMPANY, LIMITED, priority 2018, dated 2023).

Test system: soybean rust fungus (Phakopsora pachyrhizi) having an amino acid substitution of F129L on mitochondrial cytochrome b protein
Assay: Leaf disk test for control of soybean rust (Test Example 1 / Comparative Test Example 1)
Format: in vivo
Settings: method of Test Example 1
Description: Soybean leaf (cv; Kurosengoku) was punched out to 1 cm diameter to prepare a leaf disk. Each 1 mL of an agar medium (agar concentration 1.2%) was dispensed in 24 well microplate. A piece of the leaf disk was placed on each well. To a mixture of 0.5 μL of Sorpol (registered trademark) 1200KX, 4.5 μL of DMSO, and 5 μL of xylene was added 20 μL of a solution containing 10000 ppm of the test compound in DMSO. The resulting mixture was diluted with ion exchange water to prepare a spray solution containing a predetermined concentration of the test compound. The spray solution was sprayed in 10 μL per one leaf disk. After 1 day, an aqueous suspension of spores of soybean rust fungus (Phakopsora pachyrhizi) having an amino acid substitution of F129L on mitochondrial cytochrome b protein (1.0×10^5/mL) was inoculated onto the leaf disks. After the inoculation, the microplate was placed in a growth chamber (light on for 6 hours, light off for 18 hours, 23° C. temperature, 60% humidity). After 1 day, the leaf disks were air-dried to disappear water droplets on the surface of the leaf disk, and the microplate was placed again in the growth chamber for 12 days. Thereafter, a lesion area of soybean rust disease was assessed. […] Here the untreated means that the spray solution containing the test compound was not sprayed onto the leaf disk.
The test was conducted by using as a test compound the compound 3 or 8 of the present invention, the present compound 6, 12, 13, 22, 38, 40, 48, 51, 64 or 84, pyraclostrobin, azoxystrobin, picoxystrobin, orysastrobin, dimoxystrobin, metominostrobin, or pyribencarb at 12.5 ppm or 3.1 ppm according to a method described in the Test Example 1. The results are indicated in [Table A], [Table B], and [Table C].

Row | Compound | Lesion area (%) (3.1 ppm) | Lesion area (%) (12.5 ppm)
1 | CNC(=O)/C(=N/OC)c1ccccc1COc1cc(C)ccc1C [dimoxystrobin, reference compound] | 100% | 100%
2 | COc1nn(C)c(=O)n1Cc1cc(C#C[Si](C)(C)C)ccc1C [Present Compound 13] | 30% | 0%
3 | CO/C=C(\Oc1cc(/C(C)=N/OCC2CCC2)ccc1C)C(=O)OC [Present Compound 84] |  | 0%
4 | CO/N=C(\Cc1cc(C#CC(C)(C)C)ccc1C)C(=O)OC [Present Compound 6] | 0% | 0%
5 | COC(=O)NCc1cc(/C(C)=N/OCc2cccc(C)n2)ccc1Cl [pyribencarb, reference compound] | 100% | 100%
6 | CNC(=O)/C(=N/OC)c1ccccc1Oc1ccccc1 [metominostrobin, reference compound] | 100% | 100%
7 | CNC(=O)/C(Cc1cc(C#CC(C)(C)OC)ccc1C)=N/OC [Present Compound 12] | 0% | 0%
8 | Cc1ccc(-c2ccccc2)cc1Cn1c(C(F)F)nn(C)c1=O [Present Compound 40] | 0% | 0%
9 | CO/C=C(\Oc1cc(-c2ccc(F)cc2)ccc1C)C(=O)OC [Present Compound 22] | 10% | 0%
10 | CO/C=C(\Oc1cc(/C(C)=N/OCc2cccc(C)c2)ccc1C)C(=O)OC [Present Compound 48] |  | 0%
11 | CNC(=O)/C(=N/OC)c1ccccc1CO/N=C(C)/C(=N/OC)C(/C)=N/OC [orysastrobin, reference compound] | 100% | 100%
12 | COC(=O)N(OC)c1ccccc1COc1ccn(-c2ccc(Cl)cc2)n1 [pyraclostrobin, reference compound] | 100% | 100%
13 | CO/C=C(/C(=O)OC)c1ccccc1Oc1cc(Oc2ccccc2C#N)ncn1 [azoxystrobin, reference compound] | 100% | 100%
14 | CO/C=C(/C(=O)OC)c1ccccc1COc1cccc(C(F)(F)F)n1 [picoxystrobin, reference compound] | 100% | 100%
15 | CCCO/N=C(\C)c1ccc(C)c(C/C(=N\OC)C(=O)NC)c1 [Present Compound 51] |  | 0%
16 | CO/C=C(\Oc1cc(-c2cccs2)ccc1C)C(=O)OC [Present Compound 64] | 10% | 0%
17 | CO/C=C(\Oc1cc(/C=C/C2CC2)ccc1C)C(=O)OC [Compound 3 of the present invention] | 10% | 0%
